Assay results reported in patent publication US9096591B2, “Tetracyclic compounds” (Medivation Technologies, Inc., priority 2007, dated 2015).
Like-named read-outs stand apart in the source and are kept apart here.

Assays:
[1] = target: T1, human recombinant serotonin (5-Hydroxytryptamine) 5-HT6 receptor (Homo sapiens, UniProt P50406); assay: Serotonin 5-HT6 radioligand binding ([3H]LSD); design: Inhibition of ligand binding, Ser. 5-HT6: concentration or dose not given beside the values; conditions: percent inhibition of specific binding
T1 construct: expressed in transfected cells; host or cells: human HeLa cells
Excerpt: Receptor proteins were filtered and washed, the filters were then counted to determine [3H]LSD specifically bound. […] Biochemical assay results are presented as the percent inhibition of specific binding in Table 6.

[2] = target: T2, human recombinant histamine H1 receptor (Homo sapiens, UniProt P35367); assay: Histamine H1 radioligand binding ([3H]Pyrilamine); conditions: read-out: Inhibition of ligand binding, Hist. H1
T2 construct: expressed in transfected cells; host or cells: CHO cells
Outline: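 CHO-expressed receptor in modified Tris-HCl buffer (50 mM, pH 7.4; 2 mM MgCl2, 100 mM NaCl, 250 mM sucrose); bound ligand measured after filtration and washing.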

[3] = system: adrenergic receptors α1D, α2A, α2B; serotonin receptor 5-HT6; dopamine receptor D2L; assay: Classification of compounds (Type 1-4) from receptor binding and neurite outgrowth
[4] = target: T3, human recombinant adrenergic α2A receptor (Homo sapiens, UniProt P08913); assay: Adrenergic α2A radioligand binding ([3H]MK-912); design: Inhibition of ligand binding, Adren. alpha2A: concentration or dose not given beside the values; conditions: percent inhibition of specific binding
T3 construct: expressed in transfected cells; host or cells: insect Sf9 cells
T3 sequence (P08913 1-465): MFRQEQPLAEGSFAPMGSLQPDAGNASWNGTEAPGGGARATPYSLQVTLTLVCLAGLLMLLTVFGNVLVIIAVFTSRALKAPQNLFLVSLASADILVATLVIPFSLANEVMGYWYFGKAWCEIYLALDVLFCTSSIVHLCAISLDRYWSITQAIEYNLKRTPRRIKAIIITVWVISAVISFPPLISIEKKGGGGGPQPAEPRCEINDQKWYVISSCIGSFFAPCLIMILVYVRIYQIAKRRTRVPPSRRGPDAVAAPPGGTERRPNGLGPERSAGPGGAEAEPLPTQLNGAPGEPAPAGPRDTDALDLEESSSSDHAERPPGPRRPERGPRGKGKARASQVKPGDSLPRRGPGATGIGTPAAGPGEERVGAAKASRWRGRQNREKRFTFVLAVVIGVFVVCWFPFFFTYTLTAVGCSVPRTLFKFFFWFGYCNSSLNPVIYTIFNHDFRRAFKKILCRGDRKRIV
Outline: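 Membranes from Sf9 cells expressing the receptor were incubated with 1 nM [3H]MK-912 for 60 minutes at 25° C in 50 mM Tris-HCl pH 7.4, 12.5 mM MgCl2, 2 mM EDTA. 10 μM WB-4101 defined non-specific binding. Values are percent inhibition of specific bound radioactivity after filtration.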

[5] = target: T4, human recombinant dopamine D2L receptor (Homo sapiens, UniProt P14416); assay: Dopamine D2L radioligand binding ([3H]Spiperone); conditions: percent inhibition of specific binding
T4 construct: expressed in transfected cells; host or cells: CHO cells
Description: Non-specific binding was estimated in the presence of 10 μM Haloperidol. Receptor proteins were filtered and washed, the filters were then counted to determine [^3H]Spiperone specifically bound. […] Biochemical assay results are presented as the percent inhibition of specific binding in Table 6.

[6] = target: T5, Serotonin (5-Hydroxytryptamine) 5-HT7 (Homo sapiens, UniProt P34969); assay: Serotonin 5-HT7 radioligand binding ([3H]LSD); design: Inhibition of ligand binding, Ser. 5-HT7: concentration or dose not given beside the values; conditions: percent inhibition of specific binding
T5 construct: expressed in transfected cells; host or cells: CHO cells
Description: Lysergic acid diethylamide (LSD) for 2 hours at 25° C. […] Receptor proteins were filtered and washed, the filters were then counted to determine [^3H]LSD specifically bound. […] Biochemical assay results are presented as the percent inhibition of specific binding in Table 6.

[7] = percent inhibition of specific binding, screened at 1 μM

T4 sequence (P14416 whole entry): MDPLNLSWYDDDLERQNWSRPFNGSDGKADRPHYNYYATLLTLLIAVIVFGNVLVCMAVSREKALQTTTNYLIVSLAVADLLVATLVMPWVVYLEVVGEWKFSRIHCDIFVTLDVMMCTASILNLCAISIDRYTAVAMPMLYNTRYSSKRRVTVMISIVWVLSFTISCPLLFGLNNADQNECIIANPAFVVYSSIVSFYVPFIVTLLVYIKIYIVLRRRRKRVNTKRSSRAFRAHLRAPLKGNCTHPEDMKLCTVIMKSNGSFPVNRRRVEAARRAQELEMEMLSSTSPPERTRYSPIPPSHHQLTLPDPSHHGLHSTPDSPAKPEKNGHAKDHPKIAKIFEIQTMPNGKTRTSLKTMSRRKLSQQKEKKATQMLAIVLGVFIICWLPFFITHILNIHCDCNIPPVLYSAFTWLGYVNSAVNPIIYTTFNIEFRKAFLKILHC
T5 sequence (P34969 whole entry): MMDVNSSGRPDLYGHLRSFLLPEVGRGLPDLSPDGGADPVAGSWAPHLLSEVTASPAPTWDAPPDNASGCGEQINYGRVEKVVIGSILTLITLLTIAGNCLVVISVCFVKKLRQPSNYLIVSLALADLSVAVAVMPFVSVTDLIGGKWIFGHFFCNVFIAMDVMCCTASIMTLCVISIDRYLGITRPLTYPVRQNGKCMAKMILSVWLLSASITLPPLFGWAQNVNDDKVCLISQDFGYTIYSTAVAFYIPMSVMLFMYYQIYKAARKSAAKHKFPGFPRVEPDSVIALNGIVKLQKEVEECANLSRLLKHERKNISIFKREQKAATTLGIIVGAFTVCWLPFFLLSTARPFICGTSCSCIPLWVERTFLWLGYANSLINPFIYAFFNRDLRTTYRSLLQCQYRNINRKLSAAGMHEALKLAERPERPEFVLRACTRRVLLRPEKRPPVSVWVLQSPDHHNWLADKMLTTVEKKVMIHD
T2 sequence (P35367 whole entry): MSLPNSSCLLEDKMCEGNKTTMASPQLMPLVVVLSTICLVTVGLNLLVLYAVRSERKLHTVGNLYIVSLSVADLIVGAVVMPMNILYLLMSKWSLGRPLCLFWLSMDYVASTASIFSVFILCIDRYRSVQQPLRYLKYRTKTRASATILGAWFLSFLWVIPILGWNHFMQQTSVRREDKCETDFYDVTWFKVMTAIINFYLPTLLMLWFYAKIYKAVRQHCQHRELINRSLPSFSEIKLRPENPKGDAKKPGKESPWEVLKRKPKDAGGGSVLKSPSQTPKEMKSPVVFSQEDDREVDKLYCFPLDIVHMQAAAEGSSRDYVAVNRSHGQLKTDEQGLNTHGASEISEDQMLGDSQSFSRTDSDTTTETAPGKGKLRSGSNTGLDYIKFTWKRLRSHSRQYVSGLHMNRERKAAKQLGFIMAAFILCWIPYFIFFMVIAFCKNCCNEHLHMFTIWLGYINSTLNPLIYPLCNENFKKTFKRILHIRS
T1 sequence (P50406 whole entry): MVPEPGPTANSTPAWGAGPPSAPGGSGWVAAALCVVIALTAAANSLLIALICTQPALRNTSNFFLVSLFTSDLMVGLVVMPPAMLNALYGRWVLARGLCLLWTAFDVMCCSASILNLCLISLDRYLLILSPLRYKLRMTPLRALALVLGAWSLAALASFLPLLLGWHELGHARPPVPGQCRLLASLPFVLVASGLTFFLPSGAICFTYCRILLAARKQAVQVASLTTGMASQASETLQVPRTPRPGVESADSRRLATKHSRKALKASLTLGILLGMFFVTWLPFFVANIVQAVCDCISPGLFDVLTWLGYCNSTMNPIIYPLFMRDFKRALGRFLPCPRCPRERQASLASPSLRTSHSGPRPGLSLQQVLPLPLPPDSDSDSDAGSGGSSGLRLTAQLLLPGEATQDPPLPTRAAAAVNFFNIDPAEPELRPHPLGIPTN

Row | Compound | Inhibition of ligand binding, Ser. 5-HT6 [1] [%] | inhibition at 1 µM [2, 7] [%] | compound type (classification by receptor binding profile and neurite outgrowth) [3] | Inhibition of ligand binding, Adren. alpha2A [4] [%] | Inhibition of ligand binding, Dop. D2L [5] [%] | Inhibition of ligand binding, Ser. 5-HT7 [6] [%] | inhibition at 1 µM [2] [%]
1 | CCc1ccc(CCn2c3c(c4cc(Cl)ccc42)CN(C)CC3)cn1 [Compound 371, 8-Chloro-5-[2-(6-ethyl-pyridin-3-yl)-ethyl]-2-methyl-2,3,4,5-tetrahydro-1H-pyrido[4,3-b]indole] | 88 | 99 | Type one | 89 | 40 |  | 
2 | CCCc1ccc(CCn2c3c(c4cc(C)ccc42)CN(C)CC3)cn1 [Compound 452, 2,8-Dimethyl-5-[2-(6-propyl-pyridin-3-yl)-ethyl]-2,3,4,5-tetrahydro-1H-pyrido[4,3-b]indole] | 93 | 109 | Type one | 92 | 52 | 96 | 
3 | Cc1ccc(CCn2c3c(c4cc(C(F)(F)F)ccc42)CN(C)CC3)cc1 [Compound 47] | 99 | 81 | Type one | 98 |  | 92 | 
4 | CN1CCc2c(c3cc(Cl)ccc3n2CCc2ccncc2)C1 [Compound 56] | 102 | 100 | Type one | 95 | 62 | 91 | 
5 | CN1CCc2c(c3cc(Cl)ccc3n2CCc2ccc(F)cc2)C1 [Compound 162, 5-(4-fluorophenethyl)-8-chloro-2,3,4,5-tetrahydro-2-methyl-1H-pyrido[4,3-b]indole] | 99 | 100 | Type one | 99 |  | 94 | 
6 | Cc1ccc(CCn2c3c(c4cc(Cl)ccc42)CN(C)CC3)cc1 [Compound 43] | 102 | 110 | Type one | 100 |  | 92 | 
7 | Cc1ccc2c(c1)c1c(n2CCc2ccc(C(C)C)nc2)CCN(C)C1 [Compound 360, 5-[2-(6-Isopropyl-pyridin-3-yl)-ethyl]-2,8-dimethyl-2,3,4,5-tetrahydro-1H-pyrido[4,3-b]indole] | 91 | 101 | Type one | 101 | 37 | 91 | 
8 | CN1CCc2c(c3cccc(Cl)c3n2CCc2ccccc2)C1 [Compound 83] | 106 | 97 | Type one | 100 |  | 95 | 
9 | CN1CCc2c(c3cc(Cl)ccc3n2CCc2ccc(Cl)cc2)C1 [Compound 45, 5-(4-chlorophenethyl)-8-chloro-2,3,4,5-tetrahydro-2-methyl-1H-pyrido[4,3-b]indole] | 103 | 103 | Type one | 100 |  | 99 | 
10 | Cc1ccc(CCn2c3c(c4cc(Cl)ccc42)CN(C)CC3)cn1 [Compound 225, 8-chloro-2,3,4,5-tetrahydro-2-methyl-5-(2-(6-methylpyridin-3-yl)ethyl)-1H-pyrido[4,3-b]indole] | 81 |  | Type one | 91 | 32 |  | 101
11 | CN1CCc2c(c3cc(Cl)ccc3n2CCc2cncc(Cl)c2)C1 [Compound 444, 8-chloro-5-(2-(5-chloropyridin-3-yl)ethyl)-2,3,4,5-tetrahydro-2-methyl-1H-pyrido[4,3-b]indole] | 96 | 101 | Type one | 89 | 32 |  | 
12 | Cc1ccc2c(c1)c1c(n2CC(C)c2ccc(F)cc2)CCN(C)C1 (stereo not drawn) [Compound 456, 5-(2-(4-fluorophenyl)propyl)-2,3,4,5-tetrahydro-2,8-dimethyl-1H-pyrido[4,3-b]indole] | 98 | 99 | Type one | 106 | 76 |  | 
13 | CN1CCc2c(c3cc(Cl)ccc3n2CCc2cccnc2)C1 [Compound 55] | 94 | 101 | Type one | 86 | 29 |  | 
14 | Cc1ccc2c(c1)c1c(n2CCc2ccc(C(F)(F)F)nc2)CCN(C)C1 [Compound 68] | 88 | 99 | Type one | 94 | 29 | 103 | 
15 | CCCc1ccc(CCn2c3c(c4cc(Cl)ccc42)CN(C)CC3)cn1 [Compound 476, 8-chloro-2,3,4,5-tetrahydro-2-methyl-5-(2-(6-propylpyridin-3-yl)ethyl)-1H-pyrido[4,3-b]indole] | 87 | 98 | Type one | 87 | 30 |  | 
16 | Cc1ccc2c(c1)c1c(n2CCc2cncc(Cl)c2)CCN(C)C1 [Compound 443, 5-(2-(5-chloropyridin-3-yl)ethyl)-2,3,4,5-tetrahydro-2,8-dimethyl-1H-pyrido[4,3-b]indole] | 96 | 102 | Type one | 87 | 29 |  | 
17 | Cc1ccc(CCn2c3c(c4cc(Cl)c(F)cc42)CN(C)CC3)cn1 [Compound 404, 8-Chloro-7-fluoro-2-methyl-5-[2-(6-methyl-pyridin-3-yl)-ethyl]-2,3,4,5-tetrahydro-1H-pyrido[4,3-b]indole] | 94 | 102 | Type one | 94 | 35 |  | 
18 | Cc1ccc2c(c1)c1c(n2CCc2cccnc2)CCN(C)C1 [Compound 60] | 91 | 101 | Type one | 84 | 24 |  | 
19 | CCc1ccc2c(c1)c1c(n2CCc2ccc(C)nc2)CCN(C)C1 [Compound 357, 8-Ethyl-2-methyl-5-[2-(6-methyl-pyridin-3-yl)-ethyl]-2,3,4,5-tetrahydro-1H-pyrido[4,3-b]indole] | 85 | 101 | Type one | 91 | 47 |  | 
